Data on eight compounds can be found in EP3587416A1, “2-OXOPIPERIDIN-3-YL DERIVATIVES AND USE THEREOF” (Institut Univ. de Ciència i Tecnologia, S.A., priority 2018, dated 2020).

Several values for one entry are separate records, joined by “and”; a condition that tells them apart may be missing. Identical values can stand only once.

One test has as its target T1, CN-PRIEIT interaction (Homo sapiens, UniProt Q08209).
T1 construct: recombinant human CNAD (amino acids 2-347) fused to glutathione S-transferase; GST (glutathione S-transferase); made in house; host or cells: bacteria
The experiment in a line: Fluorescence polarization competition binding assay, CF-SPRIEIT bound to CNA (Example 21). The conditions noted are these: 6 µM CNA, 30 nM CF-SPRIEIT, no competitor = 100%. As to the method:
INK compounds were analyzed for their ability to disrupt CN-PRIEIT interaction using a fluorescence polarization assay. This biochemical assay requires recombinant human CNAD (amino acids 2-347) fused to glutathione S-transferase (GST-CN), which was expressed and purified from bacteria, and a NFATc2-derived PRIEIT peptide labeled with carboxyfluorescein (CF), CF-PRIEIT. Competition binding assays of INK compounds on the interaction of CN with the CF-NFATc2-derived PRIEIT peptide were performed by fluorescence polarization. Briefly, 6 µM of CNA was incubated in the absence (positive control of interaction) or in the presence of 50 µM or 10 µM of competitor compound prior to addition of 30 nM of CF-SPRIEIT peptide. VIVIT peptide was included as positive control of interaction disruption ability. Data is represented as mean percentage of CF-SPRIEIT bound to CNA (± SEM) of 2 experiments performed in triplicates. Signal in the absence of competing peptide was considered as 100% of CF-SPRIEIT bound to CNA. Table 4: Functional effect of pair related structure compounds on NFATc activation

Test [1] deals with NFATc activation in HEK 293T cells. The experiment in a line: 3xNFAT-luc dual-luciferase reporter assay of NFATc activation. It counts as cell-based, human. The conditions noted are these: Io/PMA/CaCl2 stimulation, inhibition at least at 100, 50 and 20 µM (Figure 1). As to the method:
• Figure 1. Effect of INK compounds on NFATc activation in HEK 293T cells. Cells were transfected with 3xNFAT-luc reporter gene, treated with each compound at 0 µM / 0.02 µM / 0.2 µM / 1 µM / 5 µM/ 20 µM / 50 µM /100 µM (increasing concentrations of the compounds are represented in the graph from left to right) for 2 hours. Then, cells were calcium stimulated with ionomycin (1 µM), PMA (20 nM) and CaCl2 (10 mM) for 4 hours and luciferase activity was analyzed following the dual luciferase reporter assay manufacters' indications and a luminometer (Victor X5 plate reader form Perin-Elmer). […] CN activity towards the RII peptide was analyzed in the absence (positive control of CN activity) or in the presence of each compound at 50 µM, or of 50 µM of LxVP peptide (positive control of CN activity inhibition). […]
To determine the ffect of INK compounds on NFATc activation, HEK 293T cells were transfected with 3xNFAT-luc reporter gene and Renilla-luc plasmid as control of gene transfection. […] Then, cells were treated with compounds of formula (I) at several concentrations for 2 hours and light units analyzed following manufacture's protocol of the dual-luciferase reporter assay system (Figure 1, Functional effect of pair related structure compounds on NFATc activation).

In test [2] the target is T2, CNA-CF-PRIEIT interaction (Homo sapiens, UniProt Q08209).
T2 construct: human CNAα (amino acids 2-347)
Put plainly: Fluorescence polarization assay, disruption of the CNA-CF-PRIEIT interaction (Example 20). The conditions noted are these: 50 µM compound, 5 µM human CNAα, 30 nM CF-PRIEIT; mean of triplicates. It counts as binding. As to the method:
Compounds were analyzed for their potential to disrupt the interaction between the human catalytic domain of the calcineurin Aα subunit (CNAα) and the NFATc2-derived PRIEIT peptide. For this purpose we used Flourescence Polarization (FP) technique described in Mulero et al, 2009 (J. Biol. Chem.284:9394-9401). Briefly, to identify disruptors of the CNA-PRIEIT interaction, 5 µM of human CNAα (amino acids 2-347) is preincubated with 50 µM of each hit compound in OptiPlate black 384-well flat-bottom plates (PerkinElmer Life Sciences) for 15 min at room temperature. Then, carboxyfluorescein (CF)-tagged NFATc2-derived PRIEIT peptide (CF-PRIEIT, 30 nM) is added to each well and incubated for 15 more min at room temperature. Each compound has been analyzed once with triplicates. FP measurements were performed using a Victor™ X5 2030 Multilabel Reader (PerkinElmer Life Sciences) with excitation and emission wavelengths of 485 nm and 535 nm, respectively. The fluorescent polarization of the free CF-peptide was considered 0% binding and the binding of CNA to the CF-PRIEIT peptide as 100% binding. Accordingly, the capacity of the compound to disrupt CNA-CF-PRIEIT interaction was measured. None of them displace the CF-PRIEIT peptide from the CNA-PRIEIT interaction (Table 3). Interaction disruption values are less than 30%. […] Data is given as mean ± standard deviation (SD).

T1 sequence (Q08209 2-347): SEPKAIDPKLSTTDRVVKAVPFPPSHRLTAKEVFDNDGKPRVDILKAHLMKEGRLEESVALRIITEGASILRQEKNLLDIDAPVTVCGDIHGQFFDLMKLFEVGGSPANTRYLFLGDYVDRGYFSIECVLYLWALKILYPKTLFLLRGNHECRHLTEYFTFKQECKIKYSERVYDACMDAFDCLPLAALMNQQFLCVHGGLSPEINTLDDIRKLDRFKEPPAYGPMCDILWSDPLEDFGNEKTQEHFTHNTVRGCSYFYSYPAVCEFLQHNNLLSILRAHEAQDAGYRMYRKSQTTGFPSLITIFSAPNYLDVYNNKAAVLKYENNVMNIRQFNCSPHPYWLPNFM
T2 sequence (Q08209 2-347): as above

Regarding `COc1ccccc1-c1ccc(N2CCCC(NS(=O)(=O)c3cc4ccccc4o3)C2=O)c(F)c1` (stereo not shown) [IUCT-0464, N-(1-(3-fluoro-2'-methoxy-[1,1'-biphenyl]-4-yl)-2-oxopiperidin-3-yl)benzofuran-2-sulfonamide], the “Relative interaction (%) Mean” value at CN-PRIEIT interaction (10 µM competitor) is 93,8%; at CN-PRIEIT interaction (50 µM competitor) it was 83,2%. Also, the “Relative interaction (%) Sample at 10 µM” value on CN-PRIEIT interaction (10 µM competitor, single replicate) was 96,8% and 92,3% and 92,4%. Also, the “Relative interaction (%) Sample at 50 µM” value at CN-PRIEIT interaction (50 µM competitor, single replicate) was 79,0% and 87,7% and 82,9%. In addition, the NFATc activation entry in test [1] is “strongly inhibits”. This compound also registered an inhibition at 50 µM in test [2] of 25.8%. In test [2], `COc1ccccc1-c1ccc(N2CCCC(NS(=O)(=O)c3ccc4c(c3)OCO4)C2=O)c(F)c1` (stereo not shown) [IUCT-0462, N-(1-(3-fluoro-2'-methoxy-[1,1'-biphenyl]-4-yl)-2-oxopiperidin-3-yl)benzo[d][1,3]dioxole-5-sulfonamide] had an inhibition at 50 µM of 25.7%. The same measure, in the same setting: next, `COc1ccccc1-c1ccc(N2CCCC(N(CC#N)S(=O)(=O)c3cc(Cl)c(Cl)s3)C2=O)c(F)c1` (stereo not shown) [IUCT-0465, 4,5-Dichloro-N-(cyanomethyl)-N-(1-(3-fluoro-2'-methoxy-[1,1'-biphenyl]-4-yl)-2-oxopiperidin-3-yl)thiophene-2-sulfonamide]: 13.8%. Take `CCOC(=O)CN(C1CCCN(c2ccc(-c3ccccc3OC)cc2F)C1=O)S(=O)(=O)c1ccc2c(c1)OCO2` (stereo not shown) [IUCT-0466, Ethyl N-(benzo[d][1,3]dioxol-5-ylsulfonyl)-N-(1-(3-fluoro-2'-methoxy-[1,1'-biphenyl]-4-yl)-2-oxopiperidin-3-yl)glycinate]: at 50 µM the inhibition in test [2] was 16.7%. In test [2], `COc1ccccc1-c1ccc(N2CCCC(NS(=O)(=O)c3c(C)noc3C)C2=O)c(F)c1` (stereo not shown) [IUCT-0461, N-(1-(3-fluoro-2'-methoxy-[1,1'-biphenyl]-4-yl)-2-oxopiperidin-3-yl)-3,5-dimethylisoxazole-4-sulfonamide] gave an inhibition at 50 µM of 11.1%. The same measure, in the same setting: next, `COc1ccccc1-c1ccc(N2CCCC(NS(=O)(=O)c3cc(Cl)c(Cl)s3)C2=O)c(F)c1` (stereo not shown) [IUCT-0460, 4,5-Dichloro-N-(1-(3-fluoro-2'-methoxy-[1,1'-biphenyl]-4-yl)-2-oxopiperidin-3-yl)thiophene-2-sulfonamide]: 6.53%. On the same count and under the same terms, next, `CCOC(=O)CN(C1CCCN(c2ccc(-c3ccccc3OC)cc2F)C1=O)S(=O)(=O)c1ccc(-c2ccccn2)s1` (stereo not shown) [IUCT-0469, Ethyl N-(1-(3-fluoro-2'-methoxy-[1,1'-biphenyl]-4-yl)-2-oxopiperidin-3-yl)-N-((5-(pyridin-2-yl)thiophen-2-yl)sulfonyl)glycinate]: 29.3%; `COc1ccccc1-c1ccc(N2CCCC(NS(=O)(=O)c3ccc(-c4ccccn4)s3)C2=O)c(F)c1` (stereo not shown) [IUCT-0463, N-(1-(3-fluoro-2'-methoxy-[1,1'-biphenyl]-4-yl)-2-oxopiperidin-3-yl)-5-(pyridin-2-yl)thiophene-2-sulfonamide]: 15.8%.
